According to US20250136634A1, “CAP ANALOG AND USE THEREOF” (SHANGHAI HONGENE BIOTECH CORPORATION, priority 2021, published 2025):

Key:
[1] = target: T1, IFIT1 (Homo sapiens, UniProt P09914); test: Binding ability of mRNA to IFIT1, RNA co-immunoprecipitation and qPCR in Hela cells; details: 2 ug mRNA/well, cells collected after 24 hours, relative to ^m7GpppApG cap, mean±SD
T1 construct: endogenous in cells; host or cells: Hela cells (ATCC CCL-2)
T1 sequence (P09914 1-478): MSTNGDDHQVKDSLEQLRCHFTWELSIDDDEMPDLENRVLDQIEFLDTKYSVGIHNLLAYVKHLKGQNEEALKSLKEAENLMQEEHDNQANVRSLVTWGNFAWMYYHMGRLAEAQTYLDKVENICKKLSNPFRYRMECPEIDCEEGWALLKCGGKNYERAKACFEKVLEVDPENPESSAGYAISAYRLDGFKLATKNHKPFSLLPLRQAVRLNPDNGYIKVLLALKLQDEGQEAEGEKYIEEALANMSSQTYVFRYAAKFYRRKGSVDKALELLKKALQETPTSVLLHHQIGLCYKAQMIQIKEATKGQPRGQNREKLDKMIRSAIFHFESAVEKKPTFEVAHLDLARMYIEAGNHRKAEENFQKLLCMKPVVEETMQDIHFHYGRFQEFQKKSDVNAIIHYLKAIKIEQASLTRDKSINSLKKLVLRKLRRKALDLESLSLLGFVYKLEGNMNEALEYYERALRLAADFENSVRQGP
Protocol: In this example, Hela cells (ATCC CCL-2) were transfected with luciferase mRNAs (Gaussia luciferase) comprising various initial cap structures (the initial cap nucleotide structures comprised are: ^m7GpppApG, ^m7GpppA2′Ome pG, ^m7G3′OmepppA2′O-ethylpG, ^m7G2′OmepppA2′O-ethylpG, ^m7G3′Omeppp A2′O-MOEpG, ^m7G2′O-mepppA2′O-MOEpG, ^m7Gppp(N6-methyladenine)2′O-MOEpG, ^m7G2′OmepppC2′O-ethylpC, ^m7G3′OmepppA2′O-MOEpU), and collected after 24 hours. The intracellular proteins RIG-I and IFIT1 were co-precipitated with the RNAs to which they bound by RNA co-immunoprecipation. The mRNAs were subjected to reverse transcription and real-time quantitative PCR, and the relative abundance of the mRNAs is proportional to their RIG-I and IFIT1 binding ability.
(§1) Hela cells were seeded at a cell density of 4×10^5/well in 6-well plates, and transfected with mRNA at 2 ug mRNA/well when the cell density reached about 80% using Lipofectamine MessengerMAX Transfection Reagent (Invitrogen) according to the transfection steps in the instruction. The cells were collected after 24 hours, and incubated at RT for 10 minutes after the addition of fixative solution. The reaction was then terminated by adding glycine at a suitable concentration, and the cells were collected by centrifugation. Appropriate amount of lysis solution was added to the cells. The mixture was incubated on ice for 30 minutes and centrifuged to collect supernatant. Appropriate amount of (2-4 ng) anti-RIG-I and IFIT1 antibodies (Abcam) were added to the supernatant, and the mixture was incubated overnight at 4° C. on a shaker, and then 20 ul Protein A/G magnetic beads were added and incubated for 2 hours at 4° C. on a shaker. The beads were rinsed using magnetic grate for 5 minutes and repeated 3 times. After that, 1 mL TRIzol reagent was added to the magnetic beads to extract RNAs which were then reverse transcribed into cDNAs. The expression of related genes was detected using real-time quantitative fluorescent PCR with B-actin as the internal reference. The detection of each gene was repeated 3 times, and the result of the expression of each gene is expressed as the relative value to the result of ^m7GpppApG cap.
The intracellular proteins RIG-I and IFIT1 were co-precipitated with the RNAs to which they bound by RNA co-immunoprecipitation. The mRNAs were subjected to reverse transcription and real-time quantitative PCR, and the relative abundance of the mRNAs is proportional to their RIG-I and IFIT1 binding ability.
as §1, with “(Invitrogen) as the transfection reagent” for “(Invitrogen)”, “was” for “was then”

[2] = tested on: Thermostable T7 RNA polymerase (NEB); details: Example 3, thermostable T7 RNA polymerase IVT at 50° C. for 2 hs, LC-MS
Protocol: The LC-MS analyses involved in determining capping efficiency in the following examples are as follows: • Equipment: Waters UPLC H-Class • Column: ACQUITY UPLC Oligonucleotide BEH C18, 2.1*150 mm • Column temperature: 75° C. • Mobile phase A: 200 mM hexafluoroisopropanol+8.15 mM triethylamine pH7.9 • Mobile phase B: methanol • Flow rate: 0.3 mL/min • Gradient:
Initial cap oligonucleotides are ^m7GpppApG, ^m7G pppA2′Ome PG (control), ^m7GBeta-D-LNApppA2′O-MOEpG, and ^m7GAlpha-L-LNApppA2′O-ethyl pG, respectively. • reacting at 50° C. for 2 hs, • adding DNase I (1U), and reacting at 37° C. for 30 mins. (5) Treatment with Antarctic Phosphatase:
For each tested initial cap oligonucleotide, the ratio of capped mRNA was assessed by analyzing liquid chromatography-mass spectrometry (LC-MS) results. In the experiment, a DNA probe complementary to the mRNA was used. Upon the hybridization of the DNA to the RNA, RNaseH specifically hydrolyzed the phosphodiester bond in the RNA to produce small fragments of RNAs with homogeneous 3′ end. The molecular weight and percentage of the small RNA fragments were determined by LC-MS, and were used to determine capping of the RNAs in the transcription reaction. Since the presence and absence of cap at 5′ end can be distinguished by the molecule weight, the capping efficiency can be determined via the molecule weight and percentage of trunked 5′ end-containing RNAs. In addition, from the calculation of the molecule weight, it can be determined that the caps added are the capping nucleotides.

Substance	Relative binding ability to IFIT1 ([1]; Example 2)	Capping efficiency [2]	Relative binding ability to IFIT1 ([1]; Example 3 (IVT at 50° C.))
^m7G2′OmepppA2′O-MOEpG	0.66 ± 0.02	–	–
^m7G2′OmepppA2′O-ethylpG	0.84 ± 0.08	–	–
^m7G2′OmepppC2′O-ethylpC	0.91 ± 0.05	–	–
^m7G3′OmepppA2′O-MOEpG	0.76 ± 0.04	–	–
^m7G3′OmepppA2′O-MOEpU	1.19 ± 0.07	–	–
^m7G3′OmepppA2′O-ethylpG	0.89 ± 0.13	–	–
^m7GAlpha-L-LNApppA2′O-ethyl pG	–	63%	0.55 ± 0.07
^m7GBeta-D-LNApppA2′O-MOEpG	–	70%	0.49 ± 0.04
^m7Gppp(N6-methyladenine)2′O-MOEpG	0.79 ± 0.01	–	–
^m7GpppA2′Ome pG [reference compound]	0.88 ± 0.01	95%	0.84 ± 0.09
^m7GpppApG [reference compound]	1 ± 0.04	93%	1 ± 0.19
